Patent publication US20240270740A1, “INHIBITORS OF CYCLIC GMP-AMP SYNTHASE AND USES THEREOF” (Ventus Therapeutics U.S., Inc., priority 2022, published 2024)

Target: hcGAS (Homo sapiens, UniProt Q8N884)
Test: hcGAS LCMS assay (direct measurement of cGAMP production)
Format: biochemical
Details: 0.5 nM hcGAS, 100 μM ATP, 100 μM GTP, 25 nM dsDNA, 4 h incubation
How it was run: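 Direct LC/MS readout of cGAMP formed: 4-h enzyme–substrate incubation with compound, stopped by acetonitrile/water quench carrying isotope-labelled cGAMP (0.15 mM) as standard. Potency reported as IC50 ranges.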

hcGAS, sequence (Q8N884 whole entry): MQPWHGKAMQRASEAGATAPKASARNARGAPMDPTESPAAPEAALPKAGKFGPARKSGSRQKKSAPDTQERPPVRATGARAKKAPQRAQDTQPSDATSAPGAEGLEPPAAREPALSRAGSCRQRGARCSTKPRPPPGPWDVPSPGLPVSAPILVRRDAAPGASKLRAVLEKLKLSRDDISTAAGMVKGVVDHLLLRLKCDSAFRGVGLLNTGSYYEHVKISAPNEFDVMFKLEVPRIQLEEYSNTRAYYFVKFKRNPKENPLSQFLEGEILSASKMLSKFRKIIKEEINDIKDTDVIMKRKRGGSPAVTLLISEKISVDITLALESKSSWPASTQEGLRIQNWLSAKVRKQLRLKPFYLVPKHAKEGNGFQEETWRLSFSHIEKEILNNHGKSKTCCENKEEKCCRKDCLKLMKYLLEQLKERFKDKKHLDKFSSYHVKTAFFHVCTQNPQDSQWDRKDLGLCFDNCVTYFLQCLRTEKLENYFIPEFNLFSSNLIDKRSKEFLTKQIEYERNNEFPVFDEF

SMILES | IC50 [nM]
COc1c(N2CCC[C@@H]2CC#N)cc(C(=O)Nc2nnc(-n3nccc3C)s2)oc1=O [Compound 174, (R)-4-(2-(cyanomethyl)pyrrolidin-1-yl)-3-methoxy-N-(5-(5-methyl-1H-pyrazol-1-yl)-1,3,4-thiadiazol-2-yl)-2-oxo-2H-pyran-6-carboxamide] | 20 to 60
COc1c(NC23CC(C2)C3)cc(C(=O)Nc2nnc(-n3nccc3N)s2)oc1=O [Compound 178, N-(5-(5-amino-1H-pyrazol-1-yl)-1,3,4-thiadiazol-2-yl)-4-(bicyclo[1.1.1]pentan-1-ylamino)-3-methoxy-2-oxo-2H-pyran-6-carboxamide] | 20 to 60
COc1c(NC2COC(C)(C)OC2)cc(C(=O)Nc2nnc(-n3nccc3C)s2)oc1=O [Compound 195, 4-((2,2-dimethyl-1,3-dioxan-5-yl)amino)-3-methoxy-N-(5-(5-methyl-1H-pyrazol-1-yl)-1,3,4-thiadiazol-2-yl)-2-oxo-2H-pyran-6-carboxamide] | 5 to 20
COCC1(Nc2cc(C(=O)Nc3nnc(-n4nccc4C)s3)oc(=O)c2OC)CCC1 [Compound 196] | 5 to 20
COc1c(N[C@@H]2CCC[C@@H]2O)cc(C(=O)Nc2nnc(-c3c(Cl)ccn3C)s2)oc1=O [Compound 197, N-(5-(3-chloro-1-methyl-1H-pyrrol-2-yl)-1,3,4-thiadiazol-2-yl)-4-(((1R,2S)-2-hydroxycyclopentyl)amino)-3-methoxy-2-oxo-2H-pyran-6-carboxamide] | 5 to 20
COc1c(N[C@@H]2CCCC[C@H]2OC)cc(C(=O)Nc2nnc(-n3nccc3C)s2)oc1=O [Compound 202, 3-methoxy-4-(((1R,2R)-2-methoxycyclohexyl)amino)-N-(5-(5-methyl-1H-pyrazol-1-yl)-1,3,4-thiadiazol-2-yl)-2-oxo-2H-pyran-6-carboxamide] | 5 to 20
COCCNc1cc(C(=O)Nc2nnc(-n3nccc3N)s2)oc(=O)c1OC [Compound 205, N-(5-(5-amino-1H-pyrazol-1-yl)-1,3,4-thiadiazol-2-yl)-3-methoxy-4-((2-methoxyethyl)amino)-2-oxo-2H-pyran-6-carboxamide] | 5 to 20
COc1c(N[C@H]2CCC[C@H]2OCC(F)F)cc(C(=O)Nc2nnc(-n3nccc3C)s2)oc1=O [Compound 206, 4-(((1S,2R)-2-(2,2-difluoroethoxy)cyclopentyl)amino)-3-methoxy-N-(5-(5-methyl-1H-pyrazol-1-yl)-1,3,4-thiadiazol-2-yl)-2-oxo-2H-pyran-6-carboxamide] | 5 to 20
COc1c(N[C@@H](C)[C@@H](C)OC)cc(C(=O)Nc2nnc(-n3nccc3C)s2)oc1=O [Compound 207, 3-methoxy-4-(((2S,3R)-3-methoxybutan-2-yl)amino)-N-(5-(5-methyl-1H-pyrazol-1-yl)-1,3,4-thiadiazol-2-yl)-2-oxo-2H-pyran-6-carboxamide] | 20 to 60
COc1c(NCCOC(F)F)cc(C(=O)Nc2nnc(-n3nccc3C)s2)oc1=O [Compound 208, 4-((2-(difluoromethoxy)ethyl)amino)-3-methoxy-N-(5-(5-methyl-1H-pyrazol-1-yl)-1,3,4-thiadiazol-2-yl)-2-oxo-2H-pyran-6-carboxamide] | 5 to 20
COCCOc1c(NC23CC(C2)C3)cc(C(=O)Nc2nnc(-n3nccc3N)s2)oc1=O [Compound 210, N-(5-(5-amino-1H-pyrazol-1-yl)-1,3,4-thiadiazol-2-yl)-4-(bicyclo[1.1.1]pentan-1-ylamino)-3-(2-methoxyethoxy)-2-oxo-2H-pyran-6-carboxamide] | 5 to 20
COC[C@H]1[C@H](OC)CCN1c1cc(C(=O)Nc2nnc(-n3nccc3C)s2)oc(=O)c1OC [Compound 211, 3-methoxy-4-((2S,3R)-3-methoxy-2-(methoxymethyl)pyrrolidin-1-yl)-N-(5-(5-methyl-1H-pyrazol-1-yl)-1,3,4-thiadiazol-2-yl)-2-oxo-2H-pyran-6-carboxamide] | 5 to 20
COc1c(N[C@H]2CCC[C@H]2OC(F)F)cc(C(=O)Nc2nnc(-n3nccc3C)s2)oc1=O [Compound 212, 4-(((1S,2R)-2-(difluoromethoxy)cyclopentyl)amino)-3-methoxy-N-(5-(5-methyl-1H-pyrazol-1-yl)-1,3,4-thiadiazol-2-yl)-2-oxo-2H-pyran-6-carboxamide] | 5 to 20
Cc1ccnn1-c1nnc(NC(=O)c2cc3c(c(=O)o2)OCCN3[C@@H]2CCC[C@@H]2C#N)s1 [Compound 223, 1-((1R,2S)-2-cyanocyclopentyl)-N-(5-(5-methyl-1H-pyrazol-1-yl)-1,3,4-thiadiazol-2-yl)-5-oxo-1,2,3,5-tetrahydropyrano[3,4-b][1,4]oxazine-7-carboxamide] | 5 to 20

Other lines, results leading:

IC50 [nM] | SMILES
5 to 20 | COC[C@@H](Cc1ccccc1)Nc1cc(C(=O)Nc2nnc(-n3nccc3C)s2)oc(=O)c1OC [Compound 170, (R)-3-methoxy-4-((1-methoxy-3-phenylpropan-2-yl)amino)-N-(5-(5-methyl-1H-pyrazol-1-yl)-1,3,4-thiadiazol-2-yl)-2-oxo-2H-pyran-6-carboxamide]
5 to 20 | COc1c(N[C@@H]2CCC[C@@H]2OCC(F)F)cc(C(=O)Nc2nnc(-n3nccc3C)s2)oc1=O [Compound 171, 4-(((1R, 2S)-2-(2,2-difluoroethoxy)cyclopentyl)amino)-3-methoxy-N-(5-(5-methyl-1H-pyrazol-1-yl)-1,3,4-thiadiazol-2-yl)-2-oxo-2H-pyran-6-carboxamide]
5 to 20 | COc1c(N2CCC[C@H]2CC#N)cc(C(=O)Nc2nnc(-n3nccc3C)s2)oc1=O [Compound 175, (S)-4-(2-(cyanomethyl)pyrrolidin-1-yl)-3-methoxy-N-(5-(5-methyl-1H-pyrazol-1-yl)-1,3,4-thiadiazol-2-yl)-2-oxo-2H-pyran-6-carboxamide]
< 5 | Nc1ccnn1-c1nnc(NC(=O)c2cc(NC34CC(C3)C4)c(OCCO)c(=O)o2)s1 [Compound 177, N-(5-(5-amino-1H-pyrazol-1-yl)-1,3,4-thiadiazol-2-yl)-4-(bicyclo[1.1.1]pentan-1-ylamino)-3-(2-hydroxyethoxy)-2-oxo-2H-pyran-6-carboxamide]
5 to 20 | COc1c(NCC2(OC)CC2)cc(C(=O)Nc2nnc(-n3nccc3C)s2)oc1=O [Compound 190]
< 5 | COc1c(NC[C@H](C)OC)cc(C(=O)Nc2nnc(-c3c(Cl)ccn3C)s2)oc1=O [Compound 193, (S)-N-(5-(3-chloro-1-methyl-1H-pyrrol-2-yl)-1,3,4-thiadiazol-2-yl)-3-methoxy-4-((2-methoxypropyl)amino)-2-oxo-2H-pyran-6-carboxamide]
5 to 20 | COC[C@H]1CCN1c1cc(C(=O)Nc2nnc(-n3nccc3C)s2)oc(=O)c1OC [Compound 194, (R)-3-methoxy-4-(2-(methoxymethyl)azetidin-1-yl)-N-(5-(5-methyl-1H-pyrazol-1-yl)-1,3,4-thiadiazol-2-yl)-2-oxo-2H-pyran-6-carboxamide]
< 5 | COCCOc1c(N[C@@H](COC)c2ccccc2)cc(C(=O)Nc2nnc(-n3nccc3C)s2)oc1=O [Compound 200, (R)-4-((2-Methoxy-1-phenylethyl)amino)-3-(2-methoxyethoxy)-N-(5-(5-methyl-1H-pyrazol-1-yl)-1,3,4-thiadiazol-2-yl)-2-oxo-2H-pyran-6-carboxamide]
< 5 | COCCOc1c(N[C@@H](COC)c2ccccc2)cc(C(=O)Nc2nnc(-c3c(Cl)ccn3C)s2)oc1=O [Compound 201, (R)—N-(5-(3-chloro-1-methyl-1H-pyrrol-2-yl)-1,3,4-thiadiazol-2-yl)-4-((2-methoxy-1-phenylethyl)amino)-3-(2-methoxyethoxy)-2-oxo-2H-pyran-6-carboxamide]
< 5 | COC[C@H](Nc1cc(C(=O)Nc2nnc(-c3c(Cl)ccn3C)s2)oc(=O)c1OC)c1ccccc1 [Compound 213, (R)-N-(5-(3-chloro-1-methyl-1H-pyrrol-2-yl)-1,3,4-thiadiazol-2-yl)-3-methoxy-4-((2-methoxy-1-phenylethyl)amino)-2-oxo-2H-pyran-6-carboxamide]
< 5 | Cc1ccnn1-c1nnc(NC(=O)c2cc3c(c(=O)o2)OCCN3[C@H]2CCC[C@H]2C#N)s1 [Compound 224, 1-((1S,2R)-2-cyanocyclopentyl)-N-(5-(5-methyl-1H-pyrazol-1-yl)-1,3,4-thiadiazol-2-yl)-5-oxo-1,2,3,5-tetrahydropyrano[3,4-b][1,4]oxazine-7-carboxamide]
< 5 | COC[C@@H](C1CC1)N1CCOc2c1cc(C(=O)Nc1nnc(-n3nccc3C)s1)oc2=O [Compound 225, (R)-1-(1-cyclopropyl-2-methoxyethyl)-N-(5-(5-methyl-1H-pyrazol-1-yl)-1,3,4-thiadiazol-2-yl)-5-oxo-1,2,3,5-tetrahydropyrano[3,4-b][1,4]oxazine-7-carboxamide]
< 5 | COC[C@H](C1CC1)N1CCOc2c1cc(C(=O)Nc1nnc(-n3nccc3C)s1)oc2=O [Compound 226, (S)-1-(1-cyclopropyl-2-methoxyethyl)-N-(5-(5-methyl-1H-pyrazol-1-yl)-1,3,4-thiadiazol-2-yl)-5-oxo-1,2,3,5-tetrahydropyrano[3,4-b][1,4]oxazine-7-carboxamide]
< 5 | COC[C@@H](c1ccccc1)N1CCOc2c1cc(C(=O)Nc1nnc(-n3nccc3C)s1)oc2=O [Compound 227, (R)-1-(2-methoxy-1-phenylethyl)-N-(5-(5-methyl-1H-pyrazol-1-yl)-1,3,4-thiadiazol-2-yl)-5-oxo-1,2,3,5-tetrahydropyrano[3,4-b][1,4]oxazine-7-carboxamide]
